Test [1] addresses T1, mouse EP4 (Mus musculus, UniProt P32240).
T1 construct: expressed in transfected cells; host or cells: CHO cells (membrane fraction)
As to the kind of experiment: Binding assay using cell expressing the prostanoid receptor subtypes (EP4). The following applies: more polar isomer; membrane fraction of CHO cell expressing mouse EP4; [3H]-PGE2 2.5 nM; 1 hour, room temperature; pH 6.0; read-out: dissociation constant Ki (μM) EP4. The protocol:
For example, in a standard laboratory test, such effects of the compound of the present invention were confirmed by binding assay using cell expressing the prostanoid receptor subtypes. (i) Binding assay using cell expressing the prostanoid receptor subtypes The preparation of membrane fraction was carried out according to the method of Sugimoto et al [J. Biol. […] The standard assay mixture containing membrane fraction (0.5 mg/ml), [^3 H]-PGE2 in a final volume of 200 μl was incubated for 1 hour at room temperature. The reaction was terminated by addition of 3 ml of ice-cold buffer. The mixture was rapidly filtered through a glass filter (GF/B). The radioactivity associated with the filter was measured by liquid scintillation counter. Kd and Bmax values were determined from Scatchard plots [Ann. N.Y. Acad. Sci., 51, 660 (1949)]. Non-specific binding was calculated as the amount bond in the presence of an excess (2.5 μM) of unlabeled PGE2. In the experiment for competition of specific [^3 H]-PGE2 binding by the compounds of the present invention, [^3 H]-PGE2 was added at a concentration of 2.5 nM and the compound of the present invention was added at a various concentration. The following buffer was used in all reactions. Buffer: 10 mM potassium phosphate (pH 6.0), 1 mM EDTA, 10 mM MgCl2, 0.1 M NaCl The dissociation constant (Ki) of each compound was calculated by the following equation.

Test [2] addresses T2, mouse EP3 α (Mus musculus, UniProt P30557).
T2 construct: expressed in transfected cells; host or cells: CHO cells (membrane fraction)
T2 sequence (P30557 1-365): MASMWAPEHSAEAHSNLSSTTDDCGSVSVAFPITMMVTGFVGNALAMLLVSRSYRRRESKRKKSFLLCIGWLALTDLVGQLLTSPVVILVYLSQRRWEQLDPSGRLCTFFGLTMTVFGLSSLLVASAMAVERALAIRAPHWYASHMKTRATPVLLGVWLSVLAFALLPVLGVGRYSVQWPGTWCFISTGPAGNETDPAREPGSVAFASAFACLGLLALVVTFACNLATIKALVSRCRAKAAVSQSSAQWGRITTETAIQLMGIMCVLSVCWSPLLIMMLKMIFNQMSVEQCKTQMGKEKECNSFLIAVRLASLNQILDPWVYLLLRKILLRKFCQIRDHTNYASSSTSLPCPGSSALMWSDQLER
As to the kind of experiment: Binding assay using cell expressing the prostanoid receptor subtypes (EP3α). The following applies: more polar isomer; membrane fraction of CHO cell expressing mouse EP3α; [3H]-PGE2 2.5 nM; 1 hour, room temperature; pH 6.0; read-out: dissociation constant Ki (μM) EP3α. The protocol:
For example, in a standard laboratory test, such effects of the compound of the present invention were confirmed by binding assay using cell expressing the prostanoid receptor subtypes. (i) Binding assay using cell expressing the prostanoid receptor subtypes
The preparation of membrane fraction was carried out according to the method of Sugimoto et al [J. Biol. Chem. 267, 6463-6466 (1 992)], using CHO cell expressing prostanoid receptor subtype (mouse EP3 α, EP4).
The standard assay mixture containing membrane fraction (0.5 mg/ml), [^3 H]-PGE2 in a final volume of 200 μl was incubated for 1 hour at room temperature. The reaction was terminated by addition of 3 ml of ice-cold buffer. The mixture was rapidly filtered through a glass filter (GF/B). The radioactivity associated with the filter was measured by liquid scintillation counter.
Kd and Bmax values were determined from Scatchard plots [Ann. N.Y. Acad. Sci., 51, 660 (1949)]. Non-specific binding was calculated as the amount bond in the presence of an excess (2.5 μM) of unlabeled PGE2. In the experiment for competition of specific [^3 H]-PGE2 binding by the compounds of the present invention, [^3 H]-PGE2 was added at a concentration of 2.5 nM and the compound of the present invention was added at a various concentration.
The following buffer was used in all reactions. Buffer: 10 mM potassium phosphate (pH 6.0), 1 mM EDTA, 10 mM MgCl2, 0.1 M NaCl
The dissociation constant (Ki) of each compound was calculated by the following equation.

Consider ten molecules from US6043275A, “3,7-dithiaprostanoic acid derivative” (Ono Pharmaceutical Co., Ltd., priority 1998, dated 2000).

Broadly, the Ki is the dissociation constant of the complex between target and ligand, obtained from inhibition or displacement.

T1 sequence (P32240 whole entry): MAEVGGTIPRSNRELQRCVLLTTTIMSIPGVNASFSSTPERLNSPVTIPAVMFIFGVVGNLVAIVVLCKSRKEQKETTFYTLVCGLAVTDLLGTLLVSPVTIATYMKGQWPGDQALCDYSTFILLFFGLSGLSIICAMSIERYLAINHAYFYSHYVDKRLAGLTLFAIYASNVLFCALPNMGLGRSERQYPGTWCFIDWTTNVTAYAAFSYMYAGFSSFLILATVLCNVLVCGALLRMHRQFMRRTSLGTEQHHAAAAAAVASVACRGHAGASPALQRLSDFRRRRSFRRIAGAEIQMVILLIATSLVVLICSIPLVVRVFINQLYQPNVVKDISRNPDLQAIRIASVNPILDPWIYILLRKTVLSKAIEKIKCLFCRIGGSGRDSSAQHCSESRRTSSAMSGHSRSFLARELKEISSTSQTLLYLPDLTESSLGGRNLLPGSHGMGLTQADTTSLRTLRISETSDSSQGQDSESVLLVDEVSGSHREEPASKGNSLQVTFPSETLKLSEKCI

`O=C(O)CSCCCS[C@H]1C(=O)C[C@@H](O)[C@@H]1/C=C/C(O)Cc1cccc(-c2ccccc2)c1` (single isomer, unassigned) [Example 2(r), 11 α, 15-dihydroxy-9-oxo-16-(biphenyl-3-yl)-17,18,19,20-tetranor-3,7-dithiaprost-13E-enoic acid]: the Ki in test [1] was 0.001 µM; in test [2], 0.97 µM.
The corresponding values for `O=C(O)CSCCCS[C@H]1C(=O)C[C@@H](O)[C@@H]1/C=C/C(O)Cc1cccc(COc2ccccc2)c1` (single isomer, unassigned) [Example 2(rr), 11 α, 15-dihydroxy-9-oxo-16-(3-phenyloxymethylphenyl)-17,18,19,20-tetranor-3,7-dithiaprost-13E-enoic acid] are 0.0042 µM and 1.9 µM.
In the same order, the values of `O=C(O)CSCCCS[C@H]1C(=O)C[C@@H](O)[C@@H]1/C=C/C(O)Cc1cccc(C#Cc2ccccc2)c1` (single isomer, unassigned) [Example 2(bbb), 11 α, 15-dihydroxy-9-oxo-16-(3-phenylethynylphenyl)-17,18,19,20-tetranor-3,7-dithiaprost-13E-enoic acid] are 0.0003 µM and 0.23 µM.
The corresponding values for `O=C(O)CSCCCS[C@H]1C(=O)C[C@@H](O)[C@@H]1/C=C/C(O)Cc1cccc(CCF)c1` (single isomer, unassigned) [Example 2(tt), 11 α, 15-dihydroxy-9-oxo-16-[3-(2-fluoroethyl)phenyl]-17,18,19,20-tetranor-3,7-dithiaprost-13E-enoic acid] are 0.0065 µM and 0.9 µM.
Turning to `O=C(O)CSCCCS[C@H]1C(=O)C[C@@H](O)[C@@H]1/C=C/C(O)Cc1cccc(-c2ccco2)c1` (single isomer, unassigned) [Example 2(ii), 11 α, 15-dihydroxy-9-oxo-16-[3-(2-furyl)phenyl]-17,18,19,20-tetranor-3,7-dithiaprost-13E-enoic acid], the Ki stood at 0.0028 µM in test [1] and 0.25 µM in test [2].
The corresponding values for `C=CCOCc1cccc(CC(O)/C=C/[C@H]2[C@H](O)CC(=O)[C@@H]2SCCCSCC(=O)O)c1` (single isomer, unassigned) [Example 2(lll), 11 α, 15-dihydroxy-9-oxo-16-[3-(2-propenyloxymethyl)phenyl]-17,18,19,20-tetranor-3,7-dithiaprost-13E-enoic acid] are 0.0014 µM and 6.2 µM.
On to `COc1cccc(CC(O)/C=C/[C@H]2[C@H](O)CC(=O)[C@@H]2SCCCSCC(=O)O)c1` (single isomer, unassigned) [Example 2(f), 11 α, 15-dihydroxy-9-oxo-16-(3-methoxyphenyl)-17,18,19,20-tetranor-3,7-dithiaprost-13E-enoic acid], for which the Ki in test [1] worked out at 0.0099 µM; in test [2] it was 0.51 µM.
In the same order, the values of `COc1ccc(CC(O)/C=C/[C@H]2[C@H](O)CC(=O)[C@@H]2SCCCSCC(=O)O)cc1Cl` (single isomer, unassigned) [Example 2(l), 11 α, 15-dihydroxy-9-oxo-16-(4-methoxy-3-chlorophenyl)-17,18,19,20-tetranor-3,7-dithiaprost-13E-enoic acid] are 0.011 µM and 2.2 µM.
The corresponding values for `COCc1cccc(C[C@H](O)/C=C/[C@H]2[C@H](O)CC(=O)[C@@H]2SCCCSCC(=O)O)c1` [Example 2, 11 α, 15 α-dihydroxy-9-oxo-16-(3-methoxymethylphenyl)-17,18,19,20-tetranor-3,7-dithiaprost-13E-enoic acid] are 0.0097 µM and 1.2 µM.
In the same order, the values of `O=C(O)CSCCCS[C@H]1C(=O)C[C@@H](O)[C@@H]1/C=C/C(O)Cc1cccc(COC2CCCCC2)c1` (single isomer, unassigned) [Example 2(mmm), 11 α, 15-dihydroxy-9-oxo-16-(3-cyclohexyloxymethylphenyl)-17,18,19,20-tetranor-3,7-dithiaprost-13E-enoic acid] are 0.04 µM and greater than 10 µM.
